From ChEMBL document CHEMBL1201862, “PubChem BioAssay data set” (2004) come the findings set out here.

Among the test systems are A549; HCT-15; HL-60; HOP-62; LOX IMVI; MOLT-4; Malme-3M; NCI-H23; OVCAR-4; OVCAR-8; RXF 393; SF-295; SF-539; SK-MEL-2; SNB-75; TK-10; U-251; UACC-257; OVCAR-5.
Holding throughout (assay): NCI-60 cell line screen, 48 h

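Five concentrations, 48 hours, 96-well plates. GI50 is the concentration that inhibits growth by half.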 Active and inactive are the calls of the source. Cut-off read from the data, not from the text of the source: active = GI50 up to about 1.1 µM and inactive = higher.

Consider `Brc1ccc2ns[s+]c2c1`, for which the GI50 is 3.6 µM (inactive) in the assay with A549; 0.343 µM in the assay on HCT-15; 2.59 µM (inactive) in the assay with HL-60; 5.05 µM (inactive) in the assay with HOP-62; 0.659 µM (active) in the assay with LOX IMVI; 4.65 µM (inactive) in the assay with MOLT-4. Moreover, the GI50 was 33.5 µM (inactive) in the assay with Malme-3M; 20.9 µM (inactive) in the assay on NCI-H23; > 20.9 µM (inactive) in the assay with OVCAR-4; > 43.9 µM (inactive) with OVCAR-8; > 100 µM (inactive) in the assay with RXF 393; 4.46 µM (inactive) in the assay with SF-295. Moreover, the GI50 in the assay with SF-539 is 4.29 µM (inactive); in the assay on SK-MEL-2, 6.75 µM (inactive); with SNB-75, > 60 µM (inactive); in the assay on TK-10 it was 5.28 µM (inactive); in the assay with U-251 it was 16 µM (inactive); in the assay with UACC-257 it was 14.9 µM (inactive).
As for `CN1c2ccccc2N(C(=O)c2ccc(Cl)cc2)C(CC(=O)O)c2cccn21` (configuration not stated), the GI50 was > 100 µM (inactive) in the assay with A549; above 100 µM in the assay on HCT-15; > 100 µM (inactive) with HL-60; > 100 µM (inactive) in the assay with HOP-62; > 100 µM (inactive) in the assay with LOX IMVI; > 100 µM (inactive) in the assay with MOLT-4. The GI50 in the assay with Malme-3M, in the assay on NCI-H23, in the assay on OVCAR-4, with OVCAR-5, in the assay with OVCAR-8 and in the assay with RXF 393 was > 100 µM (inactive) each time. Moreover, the GI50 in the assay on SF-295, in the assay with SF-539, in the assay with SK-MEL-2, in the assay on SNB-75, in the assay on TK-10 and in the assay with UACC-257 was > 100 µM (inactive) each time.
With `CC(=O)Nc1ccc(C(=O)N2N=C(C)/C(=C\c3c(O)ccc4ccccc34)C2=O)cc1`, the GI50 is > 100 µM (inactive) in the assay on A549; 18.4 µM in the assay with HCT-15; 57.4 µM (inactive) with HL-60; > 100 µM (inactive) in the assay with HOP-62; 59.8 µM (inactive) in the assay with LOX IMVI; 31.7 µM (inactive) with MOLT-4. Moreover, the GI50 with Malme-3M is 24 µM (inactive); in the assay on NCI-H23, > 100 µM (inactive); in the assay on OVCAR-4, > 100 µM (inactive); in the assay on OVCAR-5, > 100 µM (inactive); in the assay with OVCAR-8, 88.1 µM (inactive); with SF-295, 40.5 µM (inactive). The GI50 with SF-539 is 56.4 µM (inactive); in the assay on SK-MEL-2, 29.8 µM (inactive); in the assay with SNB-75 it was > 100 µM (inactive); in the assay with TK-10, 0.1 µM (active); in the assay with UACC-257 it was > 100 µM (inactive).
For the compound `Cn1c(=O)nc2n(-c3ccc(F)c(F)c3)c3ccccc3nc-2c1=O`, the GI50 is 15.9 µM (inactive) in the assay with A549; 7.33 µM in the assay with HCT-15; 10.6 µM (inactive) in the assay on HL-60; 44.2 µM (inactive) in the assay with HOP-62; 11.3 µM (inactive) in the assay on Malme-3M; 10.8 µM (inactive) in the assay with NCI-H23. Moreover, the GI50 with OVCAR-4 was 8.83 µM (inactive); in the assay with OVCAR-5, 22.3 µM (inactive); in the assay with OVCAR-8, 13.2 µM (inactive); in the assay with RXF 393 it was 28.2 µM (inactive); in the assay with SF-295, 14.3 µM (inactive); with SF-539 it was 27.1 µM (inactive). For the same compound, the GI50 was 17 µM (inactive) in the assay with SK-MEL-2; 23.3 µM (inactive) in the assay with SNB-75; 32.3 µM (inactive) with TK-10; 14.7 µM (inactive) in the assay on U-251; 6.68 µM (inactive) in the assay with UACC-257.
`N#C/C(=C\c1ccccc1Br)C(=O)c1ccccc1`: the GI50 with A549 was > 40.7 µM (inactive); in the assay on HCT-15, 8.34 µM; with HL-60, 1.28 µM (inactive); in the assay on HOP-62 it was 39.7 µM (inactive); in the assay with LOX IMVI, 11.8 µM (inactive); in the assay with MOLT-4, 12.2 µM (inactive). Moreover, the GI50 in the assay with Malme-3M is > 53.1 µM (inactive); in the assay on NCI-H23, > 40.4 µM (inactive); in the assay on OVCAR-4, 7.14 µM (inactive); with OVCAR-5, > 61.7 µM (inactive); with OVCAR-8 it was 11.1 µM (inactive); in the assay on RXF 393, 32.9 µM (inactive). The GI50 in the assay on SF-295 is 31 µM (inactive); with SF-539, > 91.2 µM (inactive); in the assay on SK-MEL-2 it was > 65.5 µM (inactive); with TK-10, > 63.4 µM (inactive); in the assay on U-251 it was > 48.3 µM (inactive); in the assay with UACC-257, > 60 µM (inactive).
For `CC1=NN(C(=O)Cc2ccccc2)C(=O)/C1=C\c1ccccc1O`, the GI50 with A549 is > 100 µM (inactive); with HCT-15 it was above 100 µM; in the assay with HL-60 it was > 100 µM (inactive); in the assay on HOP-62, > 100 µM (inactive); in the assay on LOX IMVI, > 100 µM (inactive); in the assay on MOLT-4 it was > 100 µM (inactive). In addition, the GI50 with Malme-3M, in the assay on NCI-H23, in the assay on OVCAR-4, with OVCAR-5, in the assay with OVCAR-8 and in the assay on RXF 393 was > 100 µM (inactive) throughout. The GI50 with SF-295, with SF-539, in the assay on SK-MEL-2, in the assay on TK-10, in the assay on U-251 and in the assay with UACC-257 was > 100 µM (inactive) throughout.
Turning to `CC1=CC(N2C(=O)C(C)=CC2O)NC1=O` (configuration not stated), the GI50 was > 100 µM (inactive) in the assay with A549; > 100 µM (inactive) in the assay on HL-60; > 100 µM (inactive) in the assay on HOP-62; > 100 µM (inactive) in the assay with LOX IMVI; 45.8 µM (inactive) in the assay on Malme-3M; > 100 µM (inactive) in the assay on NCI-H23. Moreover, the GI50 in the assay on OVCAR-4, in the assay on OVCAR-5, with OVCAR-8, in the assay on RXF 393, in the assay on SF-295 and with SF-539 was > 100 µM (inactive) in each case. The GI50 with SK-MEL-2, with SNB-75, in the assay on TK-10, in the assay on U-251 and in the assay with UACC-257 was > 100 µM (inactive) throughout.
Take `COc1nc2c(nc(N)n2C2OCC(O)C(O)C2O)c(=O)n1C` (configuration not stated): the GI50 in the assay with A549, in the assay on HL-60, in the assay with HOP-62, in the assay on LOX IMVI, in the assay with MOLT-4 and with Malme-3M was > 100 µM (inactive) each time. In addition, the GI50 with NCI-H23, with OVCAR-4, in the assay with OVCAR-8, in the assay with RXF 393, with SF-295 and in the assay on SF-539 was > 100 µM (inactive) in each case. In addition, the GI50 with SNB-75, in the assay with TK-10, in the assay on U-251 and with UACC-257 was > 100 µM (inactive) each time.
As for `Cc1cc(CC(=O)NCCO)n(CCO)c(=O)c1`, the GI50 in the assay with A549, with HL-60, with HOP-62, in the assay with LOX IMVI, in the assay on MOLT-4 and in the assay on Malme-3M was > 100 µM (inactive) each time. Moreover, the GI50 in the assay with NCI-H23, with OVCAR-4, in the assay with OVCAR-5, with OVCAR-8, in the assay on RXF 393 and in the assay on SF-295 was > 100 µM (inactive) throughout. The GI50 was > 100 µM (inactive) with SF-539; 84.1 µM (inactive) with SNB-75; > 100 µM (inactive) in the assay with TK-10; > 100 µM (inactive) in the assay on U-251; > 100 µM (inactive) in the assay with UACC-257.
Regarding `Cc1cccc(NC(=O)c2cc3cc(/N=N/c4ccccc4Cl)ccc3oc2=O)c1`, the GI50 was 77.3 µM (inactive) in the assay with A549; 27.4 µM in the assay with HCT-15; > 100 µM (inactive) in the assay with HL-60; 46.2 µM (inactive) with HOP-62; 10.4 µM (inactive) with LOX IMVI; 22.8 µM (inactive) in the assay with MOLT-4. The GI50 is 45.4 µM (inactive) with Malme-3M; 19.7 µM (inactive) with NCI-H23; 29.4 µM (inactive) with OVCAR-4; 23.4 µM (inactive) in the assay on OVCAR-5; 27 µM (inactive) in the assay on OVCAR-8; 33.1 µM (inactive) with RXF 393. Besides, the GI50 in the assay with SF-295 is 40 µM (inactive); in the assay on SF-539, 30.3 µM (inactive); in the assay with SNB-75 it was 60.8 µM (inactive); in the assay with TK-10 it was 36 µM (inactive); in the assay on U-251, 26.5 µM (inactive); with UACC-257 it was 40.4 µM (inactive).
For the compound `O=c1nc(/C=C/c2ccccc2Cl)cc2n1CCN2CCO`, the GI50 in the assay on HCT-15 is above 100 µM; in the assay on HL-60, > 100 µM (inactive); in the assay on HOP-62, > 100 µM (inactive); with LOX IMVI, > 100 µM (inactive); in the assay with MOLT-4, 75.9 µM (inactive); in the assay with Malme-3M, > 100 µM (inactive). In addition, the GI50 in the assay with OVCAR-4 is 80.2 µM (inactive); with OVCAR-5, > 100 µM (inactive); in the assay with OVCAR-8 it was > 100 µM (inactive); with RXF 393, 95.1 µM (inactive); in the assay with SF-295 it was > 100 µM (inactive); in the assay on SF-539, > 100 µM (inactive). In addition, the GI50 in the assay with SK-MEL-2 is 72.3 µM (inactive); with SNB-75, 26.3 µM (inactive); with TK-10, > 100 µM (inactive).
For `Cc1cc(C)c(C2=NO[C@@H]3C(=O)N(c4ccc(Cc5ccc(N6C(=O)[C@H]7C(c8c(C)cc(C)cc8C)=NO[C@H]7C6=O)cc5)cc4)C(=O)[C@H]23)c(C)c1`, the GI50 in the assay on A549 was > 100 µM (inactive); with HCT-15, above 100 µM; with HL-60, > 100 µM (inactive); in the assay on HOP-62, > 100 µM (inactive); with LOX IMVI, > 100 µM (inactive); with MOLT-4, > 100 µM (inactive). Moreover, the GI50 in the assay on Malme-3M, in the assay with NCI-H23, with OVCAR-4, with OVCAR-5, in the assay with OVCAR-8 and in the assay with RXF 393 was > 100 µM (inactive) throughout. The GI50 in the assay on SF-295 is > 100 µM (inactive); in the assay with SF-539, > 100 µM (inactive); in the assay on SK-MEL-2, > 100 µM (inactive); in the assay with SNB-75, > 100 µM (inactive); with TK-10, > 100 µM (inactive); in the assay on UACC-257 it was 68.4 µM (inactive).
